Counter-ions that a name gives are not always drawn.
What was measured:
Format in all cases: physicochemical
[1] = Solid-state chemical stability of 25HC3S salts at 2-8° C., 60° C. and 80° C. (HPLC assay and degradation products); settings: for % Impurities, Total / % Impurities, 25-HC: ND = Not Detected; for % Impurities, 25-HC: 25-Hydroxy-Cholesterol; for % Recovery: vs 2-8° C.
Outline: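 Crystalline 25HC3S salts (~25 mg powder per vial) stored at 2-8° C. or 80° C., pulled at 3 and 6 weeks; some 3-week 2-8° C. vials moved to 60° C. for 1 week. Dissolved in 100% methanol (sonication/vortexing, centrifugation or dilution), then HPLC against 25HC3S sodium standards (0.75-1.25 mg/mL) for assay and degradants.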

[2] = Angle of repose of 25HC3S salts; settings: for Flow Property per USP<1174> Powder Flow: classification by angle of repose
Outline: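 About 2 g of salt powder was poured through a 7 mm inner-diameter tube into a 21.14 mm rubber O-ring, forming a cone of fixed diameter. Cone height was measured with calipers and the angle of repose was calculated from it. Flow was classified per USP<1174>.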

[3] = Hausner ratio and compressibility index of 25HC3S salts; settings: for Compressibility Index: Table C3 heads this index in %
Outline: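 Powder poured into a 5 mL graduated cylinder to about 5.0 mL (Vo), tapped 200 then 100 more times on a hard surface; final volume Vf recorded after 300 taps. Compressibility index and Hausner ratio calculated from Vo and Vf; flow character classed per USP <1174>.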

[4] = Overall rank order of powder flowability (angle of repose and Hausner ratio); settings: for Powder flowability, overall (in words): angle of repose and compressibility index/Hausner ratio combined; for Angle of Repose Rank Order / Hausner Ratio Rank Order / Overall Rank Order (Total Score): lower is better flow; for Overall Rank Order (Total Score): sum of both ranks
Excerpt: Table C5 was generated by adding the relative rank order of the 25HC3S salts for angle of repose and Hausner ratio results, and creating an Over All Rank Order of the salts powder flowability. The salts with the lower overall rank order score had better powder flowability.

[5] = Thermogravimetric analysis (TGA), weight loss
Outline: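 Mettler-Toledo TGA/DSC3, calibrated with indium, tin and zinc, balance checked with calcium oxalate. Sample in a hermetically sealed aluminium pan with pierced lid, heated under nitrogen from ambient to 350° C at 10° C/min. Weight loss reported against sample temperature.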

[6] = 60° C., 1 wk, listed as 25HC3S meglumine
[7] = 2-8° C., 3 wk, listed as 25HC3S tromethammonium
[8] = 80° C., 3 wk, listed as 25HC3S tromethammonium
[9] = 80° C., 5 wk, listed as 25HC3S tromethammonium
[10] = 80° C., 5 wk, 50400 min, listed as 25HC3S tromethammonium
[11] = listed as 25HC3S tromethammonium
[12] = 80° C., 5 wk, 50400 min, listed as 25HC3S benzathine

CC(CCCC(C)(C)O)C1CCC2C3CC=C4CC(OS(=O)(=O)O)CCC4(C)C3CCC12C (centres unmarked) [Salt #7]
Assay ([1]; 2-8° C., 3 wk, 30240 min, listed as 25HC3S meglumine): 98.3 % w/w | % Impurities, Total ([1]; 2-8° C., 3 wk, listed as 25HC3S meglumine): 0.9% | % Impurities, 25-HC [1, 6]: 0.4% | Physical and chemical solid-state stability (comments) ([1]; 60° C., 1 week, listed as 25HC3S Meglumine): Stable after 1 week at 60 °C | Assay ([1]; 60° C., 1 wk (after 3 weeks at 2-8° C.), 10080 min, listed as 25HC3S meglumine, 10080 min): 104.6 % w/w | % Recovery of 2-8° C./3 wk vs 60° C./1 wk ([1]; 60° C., 1 wk, 10080 min, listed as 25HC3S meglumine): 106.4% | % Impurities, Total [1, 6]: 1.7% | Physical and chemical solid-state stability (comments) ([1]; 80° C., 3 weeks, listed as 25HC3S Meglumine): totally decomposed after 3 | % Recovery ([1]; 80° C., 3 wk, 30240 min, listed as 25HC3S meglumine, 30240 min): 0.0% | Assay ([1]; 80° C., 3 wk, 30240 min, listed as 25HC3S meglumine): 0.0 % w/w | % Impurities, Total ([1]; 80° C., 3 wk, listed as 25HC3S meglumine): 100.3% | Stability after 1 week at 60° C. (in words) ([1]; solid state, 60° C., 1 week (after 3 weeks at 2-8° C.)): stable | Stability after 3 weeks at 80° C. (in words) ([1]; solid state, 80° C., 3 weeks): totally decomposed | Flow Property per USP<1174> Powder Flow ([2]; listed as 25HC3S meglumine): Fair - aid not needed | Angle of Repose ([2]; listed as 25HC3S meglumine): 37.3 degrees | Angle of Repose, Rounded Whole Number ([2]; listed as 25HC3S meglumine): 37 degrees | Compressibility Index ([3]; listed as 25HC3S meglumine): 36 | Hausner Ratio ([3]; listed as 25HC3S meglumine): 1.56 | Powder flowability, overall (in words) ([4]; listed as meglumine): next group | Angle of Repose Rank Order ([4]; listed as 25HC3S meglumine): 5 | Hausner Ratio Rank Order ([4]; listed as 25HC3S meglumine): 12 | Overall Rank Order (Total Score) ([4]; listed as 25HC3S meglumine): 17 | Loss of moisture by TGA, starting with ambient ([5]; starting with ambient): about 3.2%

CC(CCCC(C)(C)O)C1CCC2C3CC=C4CC(OS(=O)(=O)O)CCC4(C)C3CCC12C (centres unmarked) [Salt #8]
Assay ([1]; 2-8° C., 3 wk, 30240 min, listed as 25HC3S tromethammonium): 99.4 % w/w | % Impurities, Total [1, 7]: 0.9% | Assay ([1]; 2-8° C., 5 wk, 50400 min, listed as 25HC3S tromethammonium): 105.4 % w/w | % Impurities, Total ([1]; 2-8° C., 5 wk, listed as 25HC3S tromethammonium): 0.7% | % Impurities, 25-HC [1, 7]: 0.1% | % Impurities, 25-HC [1, 8]: 0.1% | % Impurities, 25-HC [1, 9]: 2.1% | Stressed stability at 80° C. (in words) ([1]; 80° C.): good, stressed stability | Physical and chemical solid-state stability (comments) ([1]; 80° C., 3 weeks, listed as 25HC3S Tromethammonium): Stable after 3 weeks at 80 °C | % Recovery ([1]; 80° C., 3 wk, 30240 min, listed as 25HC3S tromethammonium, 30240 min): 99.8% | Assay ([1]; 80° C., 3 wk, 30240 min, listed as 25HC3S tromethammonium): 99.2 % w/w | % Impurities, Total [1, 8]: 1.2% | % Recovery, 2-8° C./5 wk vs 80° C./5 wk [1, 10]: 91.1% | Assay [1, 10]: 96.0 % w/w | % Impurities, Total [1, 9]: 12.3% | Stability after 3 weeks at 80° C. (in words) ([1]; solid state, 80° C., 3 weeks): stable | degraded at 840 h ([1]; solid state, 80° C., 5 weeks, read-out: Degradation based on % Recovery to the 2-8° C. control samples): ~9% | Flow Property per USP<1174> Powder Flow [2, 11]: Fair - aid not needed | Angle of Repose [2, 11]: 40.2 degrees | Angle of Repose, Rounded Whole Number [2, 11]: 40 degrees | Compressibility Index [3, 11]: 28 | Hausner Ratio [3, 11]: 1.39 | Powder flowability, overall (in words) ([4]; listed as tromethammonium): next group | Angle of Repose Rank Order [4, 11]: 8 | Hausner Ratio Rank Order [4, 11]: 6 | Overall Rank Order (Total Score) [4, 11]: 14 | Weight loss by TGA up to about 80° C. ([5]; up to about 80° C.): ~0.3%

CC(CCCC(C)(C)O)C1CCC2C3CC=C4CC(OS(=O)(=O)O)CCC4(C)C3CCC12C (centres unmarked) [Salt #9]
Assay ([1]; 2-8° C., 3 wk, 30240 min, listed as 25HC3S benzathine): 87.6 % w/w | % Impurities, Total ([1]; 2-8° C., 3 wk, listed as 25HC3S benzathine): 64.0% | Assay ([1]; 2-8° C., 5 wk, 50400 min, listed as 25HC3S benzathine): 77.1 % w/w | % Impurities, Total ([1]; 2-8° C., 5 wk, listed as 25HC3S benzathine): 64.2% | degradation by area normalization ([1]; 3 and 5 weeks, 2-8° C. and 80° C.): normalization were all approximately 64%-65% indicating that thermal | Change of assay value (in words) ([1]; 3 weeks and 5 weeks, 2-8° C. and 80° C.): dropped at a similar rate | assay drop (comments) ([1]; 3 weeks at 2-8° C. and 80° C. as well as after 5 weeks): The assay dropped at a similar rate after 3 weeks at 2-8 °C and 80 °C | % Recovery ([1]; 80° C., 3 wk, 30240 min, listed as 25HC3S benzathine, 30240 min): 97.4% | Assay ([1]; 80° C., 3 wk, 30240 min, listed as 25HC3S benzathine): 85.3 % w/w | % Impurities, Total ([1]; 80° C., 3 wk, listed as 25HC3S benzathine): 64.3% | % Recovery, 2-8° C./5 wk vs 80° C./5 wk [1, 12]: 91.8% | Assay [1, 12]: 70.8 % w/w | % Impurities, Total ([1]; 80° C., 5 wk, listed as 25HC3S benzathine): 65.3% | degraded ([1]; solid state, 3 weeks and 5 weeks, 2-8° C. and 80° C., read-out: Degradation by area normalization): 64 to 65% | Flow Property per USP<1174> Powder Flow ([2]; listed as 25HC3S benzathine): Passable - may hang up | Angle of Repose ([2]; listed as 25HC3S benzathine): 43.7 degrees | Angle of Repose, Rounded Whole Number ([2]; listed as 25HC3S benzathine): 44 degrees | Compressibility Index ([3]; listed as 25HC3S benzathine): 29 | Hausner Ratio ([3]; listed as 25HC3S benzathine): 1.40 | Powder flowability, overall (in words) ([4]; listed as benzathine): next group | Angle of Repose Rank Order ([4]; listed as 25HC3S benzathine): 12 | Hausner Ratio Rank Order ([4]; listed as 25HC3S benzathine): 7 | Overall Rank Order (Total Score) ([4]; listed as 25HC3S benzathine): 19 | Weight loss by TGA up to 200° C. ([5]; up to 200° C., listed as crystalline 25HC3S benzathine): 0.4%

Reference: patent US20260317367A1, “SALTS INCLUDING CRYSTALLINE SALTS OF 25-HYDROXY-CHOLEST-5-EN-3-SULFATE AND METHODS FOR PREPARING SAME” (Durect Corporation, priority 2022, published 2026)
